The source made the active and inactive calls. The calls are words filed in the database; no cut-off is given here.
How the values were obtained:
Rattus norvegicus [1] = assay: Anti-diabetic activity in fructose-treated male Wistar rat assessed as decrease in SGPT level at 10 mg/kg, po administered for 15 days (reference value: […]); type: functional; conditions: time 15 day
[2] = Acute toxicity in male Wistar rat assessed as body weight gain at 10 mg/kg, po administered for 15 days; type: organism-based; conditions: in vivo, 360 h, time 15 day
[3] = Drug recovery in rat plasma at 150 mg/kg, po by HPLC analysis; type: ADME, organism-based; conditions: in vivo
Rattus norvegicus [4] = assay: Anti-diabetic activity in fructose-treated male Wistar rat assessed as decrease in triglycerides level at 10 mg/kg, po administered for 15 days (reference value: 140.03 +/-3.55 mg/dL); type: functional; conditions: time 15 day
Rattus norvegicus [5] = assay: Anti-diabetic activity in fructose-treated male Wistar rat assessed as decrease in fasting blood glucose level at 10 mg/kg, po administered for 15 days; type: functional, organism-based; conditions: time 15.0 day
Rattus norvegicus [6] = assay: Anti-diabetic activity in fructose-treated male Wistar rat assessed as change in HOMO-IR level at 10 mg/kg, po administered for 15 days; type: functional, organism-based; conditions: time 15.0 day
[7] = Drug recovery in rat plasma at 100 mg/kg, po by HPLC analysis; type: ADME, organism-based; conditions: in vivo
Rattus norvegicus [8] = assay: Anti-diabetic activity in fructose-treated male Wistar rat assessed as decrease in MDA level in liver at 10 mg/kg, po administered for 15 days (reference value: 294.65 +/-11.78 nM/mg ); type: functional; conditions: time 15 day
Rattus norvegicus [9] = assay: Anti-diabetic activity in fructose-treated male Wistar rat assessed as increase in glycogen content in skeletal muscle at 10 mg/kg, po administered for 15 days; type: functional, organism-based; conditions: time 15.0 day
Rattus norvegicus [10] = assay: Anti-diabetic activity in fructose-treated male Wistar rat assessed as increase in LDL level at 10 mg/kg, po administered for 15 days (reference value: 40.32 +/-1.08 mg/dL); type: functional; conditions: time 15 day
[11] = AUC (0 to t) in male Wistar rat at 10 mg/kg, po measured upto 24 hrs; type: ADME, organism-based; conditions: in vivo
Rattus norvegicus [12] = assay: Anti-diabetic activity in fructose-treated male Wistar rat assessed as increase in SOD level in liver at 10 mg/kg, po administered for 15 days (reference value: 13.25 +/-1.35 U/ml); type: functional; conditions: time 15 day
Rattus norvegicus [13] = assay: Anti-diabetic activity in fructose-treated male Wistar rat assessed as increase in glycogen content in liver at 10 mg/kg, po administered for 15 days; type: functional, organism-based; conditions: time 15.0 day
Rattus norvegicus [14] = assay: Anti-diabetic activity in fructose-treated male Wistar rat assessed as decrease in insulin level at 10 mg/kg, po administered for 15 days by insulin tolerance test; type: functional, organism-based; conditions: time 15.0 day
Rattus norvegicus [15] = assay: Anti-diabetic activity in fructose-treated male Wistar rat assessed as decrease in VLDL level at 10 mg/kg, po administered for 15 days (reference value: 28 +/-0.28 mg/dL); type: functional; conditions: time 15 day
Rattus norvegicus [16] = assay: Anti-diabetic activity in fructose-treated male Wistar rat assessed as increase in CAT level in liver at 10 mg/kg, po administered for 15 days (reference value: 27.65 +/-1.02 U/min); type: functional; conditions: time 15 day
[17] = AUC (0 to infinity) in male Wistar rat at 10 mg/kg, po measured upto 24 hrs; type: ADME, organism-based; conditions: in vivo
[18] = Retention time of the compound by HPLC analysis; type: physicochemical
L6 = assay: Induction of glucose uptake in rat L6 cells incubated for 24 hrs by GOD-POD technique; type: functional; parameters: concentration or dose not given beside the values
Rattus norvegicus [19] = assay: Anti-diabetic activity in fructose-treated male Wistar rat assessed as decrease in SGOT level at 10 mg/kg, po administered for 15 days (reference value: […]); type: functional; conditions: time 15 day
[20] = Cmax in male Wistar rat at 10 mg/kg, po measured upto 24 hrs; type: ADME, organism-based; conditions: in vivo
Rattus norvegicus [21] = assay: Anti-diabetic activity in Wistar rat Diaphragm assessed as […] at 10 mg/kg, po administered for 15 days; type: functional, organism-based; conditions: time 15.0 day
Rattus norvegicus [22] = assay: Anti-diabetic activity in fructose-treated male Wistar rat assessed as increase in HDL level at 10 mg/kg, po administered for 15 days (reference value: 25.35 +/-2.03 mg/dL); type: functional; conditions: time 15 day
Rattus norvegicus [23] = assay: Anti-diabetic activity in fructose-treated male Wistar rat assessed as decrease in HOMO-IR level at 10 mg/kg, po administered for 15 days; type: functional, organism-based; conditions: time 15.0 day
[24] = Half life in male Wistar rat at 10 mg/kg, po measured upto 24 hrs; type: ADME, organism-based; conditions: in vivo
[25] = Drug recovery in rat plasma at 50 mg/kg, po by HPLC analysis; type: ADME, organism-based; conditions: in vivo
Rattus norvegicus [26] = assay: Anti-diabetic activity in fructose-treated male Wistar rat assessed as increase in GSH level in liver at 10 mg/kg, po administered for 15 days (reference value: 39.98 +/-0.86 nM/mg ); type: functional; conditions: time 15 day
[27] = Tmax in male Wistar rat at 10 mg/kg, po measured upto 24 hrs; type: ADME, organism-based; conditions: in vivo
Rattus norvegicus [28] = assay: Anti-diabetic activity in fructose-treated male Wistar rat assessed as increase in total cholesterol level at 10 mg/kg, po administered for 15 days (reference value: 93.68 +/-1.68 mg/dL); type: functional; conditions: time 15 day

Which Activity (Rattus norvegicus [1]) does the source give for `CCc1ccc(CCOc2ccc(CC3SC(=O)NC3=O)cc2)nc1` (centres undefined) [PIOGLITAZONE] here?
The Activity was 29.73 U/L.

What about the Activity [2] of the same compound?
The Activity was “Non-toxic”.

What about the Drug recovery [3] of the same compound?
The Drug recovery was 98%.

What about the Activity (Rattus norvegicus [4]) of the same compound?
The Activity was 63.57 mg/dL.

And the Activity (Rattus norvegicus [5])?
Its Activity is “Active”.

What about the Activity (Rattus norvegicus [6]) of the same compound?
Its Activity is “Active”.

And the Drug recovery [7]?
The Drug recovery was 97.4%.

What about the Activity (Rattus norvegicus [8]) of the same compound?
Its Activity is 178.35 nM/mg.

And the Activity (Rattus norvegicus [9])?
The Activity was “Active”.

And the Activity (Rattus norvegicus [10])?
Its Activity is 49.35 mg/dL.

What about the AUC(0-t) at 24 h [11] of the same compound?
Its AUC(0-t) at 24 h is 41500 ng·h/mL.

What about the Activity (Rattus norvegicus [12]) of the same compound?
The Activity was 27.65 U/ml.

And the Activity (Rattus norvegicus [13])?
Its Activity is “Active”.

And the Activity (Rattus norvegicus [14])?
Its Activity is “Active”.

And the Activity (Rattus norvegicus [15])?
The Activity was 12.7 mg/dL.

And the Activity (Rattus norvegicus [16])?
The Activity was 55.63 U/min.

And the AUC(0-inf) [17]?
Its AUC(0-inf) is 43600 ng·h/mL.

What about the Retention_time [18] of the same compound?
The Retention_time was 2.4 min.

What about the Activity (L6) of the same compound?
The Activity was 82.36%.

And the Activity (Rattus norvegicus [19])?
Its Activity is 32.45 U/L.

What about the Cmax [20] of the same compound?
Its Cmax is 3130 ng/mL.

And the Activity (Rattus norvegicus [21])?
Its Activity is “Active”.

What about the Activity (Rattus norvegicus [22]) of the same compound?
Its Activity is 60.72 mg/dL.

And the Activity (Rattus norvegicus [23])?
The Activity was “inactive”.

And the half-life [24]?
The half-life was 4.92 h.

What about the Drug recovery [25] of the same compound?
The Drug recovery was 97.1%.

What about the Activity (Rattus norvegicus [26]) of the same compound?
Its Activity is 77.65 nM/mg.

What about the Tmax [27] of the same compound?
Its Tmax is 2.69 h.

What about the Activity (Rattus norvegicus [28]) of the same compound?
Its Activity is 122.79 mg/dL.

Source: ChEMBL document CHEMBL6074653, “Reversal of insulin resistance to combat type 2 diabetes mellitus by newer thiazolidinedione's in fructose induced insulin resistant rats” (Eur J Med Chem, 2024)
